According to patent US8546409B2, “Methods of treatment for solid tumors” (priority 2009, dated 2013):

Experiments:
Assay type in all cases: cell-based
[1] = system: UACC-62; test: NCI panel growth inhibition, UACC-62; settings: Homo sapiens, Melanoma
Source text: (§1) Compound I has also been tested in a battery of tumor cell assays known as the NCI panel.

[2] = system: HT29; test: NCI panel growth inhibition, HT29; settings: Homo sapiens, HT-29, Colon Cancer
Source text: as §1

[3] = system: CAKI-1; test: NCI panel growth inhibition, CAKI-1; settings: Homo sapiens, Renal
Source text: as §1

[4] = system: SK-MEL-5; test: NCI panel growth inhibition, SK-MEL-5; settings: Homo sapiens, Melanoma
Source text: as §1

[5] = system: A498; test: NCI panel growth inhibition, A498; settings: Homo sapiens, Renal
Source text: as §1

[6] = system: HS 578T; test: NCI panel growth inhibition, HS 578T; settings: Homo sapiens, Breast Cancer
Source text: as §1

[7] = system: 786-0; test: NCI panel growth inhibition, 786-0; settings: Homo sapiens, Renal
Source text: as §1

[8] = system: NCI-H460; test: NCI panel growth inhibition, NCI-H460; settings: Homo sapiens, Non-Small Cell Lung Cancer
Source text: as §1

[9] = system: KM12; test: NCI panel growth inhibition, KM12; settings: Homo sapiens, Colon Cancer
Source text: as §1

[10] = system: SF-295; test: NCI panel growth inhibition, SF-295; settings: Homo sapiens, CNS Cancer
Source text: as §1

[11] = system: ACHN; test: NCI panel growth inhibition, ACHN; settings: Homo sapiens, Renal
Source text: as §1

[12] = system: TK-10; test: NCI panel growth inhibition, TK-10; settings: Homo sapiens, Renal
Source text: as §1

[13] = system: A549; test: NCI panel growth inhibition, A549; settings: Homo sapiens, Non-Small Cell Lung Cancer
Source text: as §1

[14] = system: HCC-2998; test: NCI panel growth inhibition, HCC-2998; settings: Homo sapiens, Colon Cancer
Source text: as §1

[15] = system: OVCAR-5; test: NCI panel growth inhibition, OVCAR-5; settings: Homo sapiens, Ovarian
Source text: as §1

[16] = system: SK-OV-3; test: NCI panel growth inhibition, SK-OV-3; settings: Homo sapiens, Ovarian
Source text: as §1

[17] = system: SK-MEL-28; test: NCI panel growth inhibition, SK-MEL-28; settings: Homo sapiens, Melanoma
Source text: as §1

[18] = system: SNB-19; test: NCI panel growth inhibition, SNB-19; settings: Homo sapiens, CNS Cancer
Source text: as §1

[19] = system: HCT-116; test: NCI panel growth inhibition, HCT-116; settings: Homo sapiens, Colon Cancer
Source text: as §1

[20] = system: RXF 393; test: NCI panel growth inhibition, RXF 393; settings: Homo sapiens, Renal
Source text: as §1

[21] = system: HCT-15; test: NCI panel growth inhibition, HCT-15; settings: Homo sapiens, Colon Cancer
Source text: as §1

[22] = system: NCI panel cancer cell lines; test: NCI panel of tumor cell assays, summary over cell lines; settings: all NCI panel cell lines
Source text: Compound I has also been tested in a battery of tumor cell assays known as the NCI panel. […] Using this measure, 1.8% of cell lines were particularly sensitive to Compound B at this level, while 39% were particularly sensitive to Compound I at the same concentration. […] Loss of PTEN activity often occurs in cancers, and enhances the sensitivity of a tumor to PI3K inhibitors. […] The following Table summarizes the cell lines found to be sensitive to Compound I and the known mutations in those cell lines.

[23] = system: COLO 205; test: NCI panel growth inhibition, COLO 205; settings: Homo sapiens, Colon Cancer
Source text: as §1

[24] = system: UACC-257; test: NCI panel growth inhibition, UACC-257; settings: Homo sapiens, Melanoma
Source text: as §1

[25] = system: NCI-H23; test: NCI panel growth inhibition, NCI-H23; settings: Homo sapiens, Non-Small Cell Lung Cancer
Source text: as §1

[26] = system: SNB-75; test: NCI panel growth inhibition, SNB-75; settings: Homo sapiens, CNS Cancer
Source text: as §1

[27] = system: HOP-62; test: NCI panel growth inhibition, HOP-62; settings: Homo sapiens, Non-Small Cell Lung Cancer
Source text: as §1

[28] = system: MDA-MB-435; test: NCI panel growth inhibition, MDA-MB-435; settings: Homo sapiens, Breast Cancer
Source text: as §1

[29] = system: NCI-H322M; test: NCI panel growth inhibition, NCI-H322M; settings: Homo sapiens, Non-Small Cell Lung Cancer
Source text: as §1

[30] = system: OVCAR-8; test: NCI panel growth inhibition, OVCAR-8; settings: Homo sapiens, Ovarian
Source text: as §1

[31] = system: SK-MEL-2; test: NCI panel growth inhibition, SK-MEL-2; settings: Homo sapiens, Melanoma
Source text: as §1

[32] = system: U251; test: NCI panel growth inhibition, U251; settings: Homo sapiens, U-251, CNS Cancer
Source text: as §1

[33] = system: LOX IMVI; test: NCI panel growth inhibition, LOX IMVI; settings: Homo sapiens, Melanoma
Source text: as §1

[34] = system: IGROV1; test: NCI panel growth inhibition, IGROV1; settings: Homo sapiens, IGROV-1, Ovarian
Source text: as §1

[35] = system: SF-539; test: NCI panel growth inhibition, SF-539; settings: Homo sapiens, CNS Cancer
Source text: as §1

[36] = system: MALME-3M; test: NCI panel growth inhibition, MALME-3M; settings: Homo sapiens, Melanoma
Source text: as §1

[37] = system: SF-268; test: NCI panel growth inhibition, SF-268; settings: Homo sapiens, CNS Cancer
Source text: as §1

[38] = system: EKVX; test: NCI panel growth inhibition, EKVX; settings: Homo sapiens, Non-Small Cell Lung Cancer
Source text: as §1

[39] = system: NCI-H226; test: NCI panel growth inhibition, NCI-H226; settings: Homo sapiens, Non-Small Cell Lung Cancer
Source text: as §1

[40] = system: ADR-RES; test: NCI panel growth inhibition, ADR-RES; settings: Breast Cancer
Source text: as §1

[41] = system: M14; test: NCI panel growth inhibition, M14; settings: Homo sapiens, Melanoma
Source text: as §1

[42] = system: MDA-MB-468; test: NCI panel growth inhibition, MDA-MB-468; settings: Homo sapiens, Breast Cancer
Source text: as §1

[43] = system: HOP-92; test: NCI panel growth inhibition, HOP-92; settings: Homo sapiens, Non-Small Cell Lung Cancer
Source text: as §1

[44] = system: SW-620; test: NCI panel growth inhibition, SW-620; settings: Homo sapiens, Colon Cancer
Source text: as §1

[45] = system: MCF7; test: NCI panel growth inhibition, MCF7; settings: Homo sapiens, Breast Cancer
Source text: as §1

[46] = system: UO-31; test: NCI panel growth inhibition, UO-31; settings: Homo sapiens, Renal
Source text: as §1

[47] = system: SN12C; test: NCI panel growth inhibition, SN12C; settings: Homo sapiens, Renal
Source text: as §1

[48] = system: OVCAR-3; test: NCI panel growth inhibition, OVCAR-3; settings: Homo sapiens, Ovarian
Source text: as §1

[49] = system: T-47D; test: NCI panel growth inhibition, T-47D; settings: Homo sapiens, T47D, Breast Cancer
Source text: as §1

[50] = system: MDA-MB-231; test: NCI panel growth inhibition, MDA-MB-231; settings: Homo sapiens, Breast Cancer
Source text: as §1

[51] = system: NCI-H522; test: NCI panel growth inhibition, NCI-H522; settings: Homo sapiens, Non-Small Cell Lung Cancer
Source text: as §1

[52] = system: BT-549; test: NCI panel growth inhibition, BT-549; settings: Homo sapiens, Breast Cancer
Source text: as §1

[53] = system: PC-3; test: NCI panel growth inhibition, PC-3; settings: Homo sapiens, Prostate
Source text: as §1

[54] = system: DU-145; test: NCI panel growth inhibition, DU-145; settings: Homo sapiens, Prostate
Source text: as §1

[55] = system: OVCAR-4; test: NCI panel growth inhibition, OVCAR-4; settings: Homo sapiens, Ovarian
Source text: as §1

CC[C@H](Nc1ncnc2[nH]cnc12)c1nc2cccc(F)c2c(=O)n1-c1ccccc1 [Compound B, reference compound]
GI50 [1]: 4.2 µM
GI50 [2]: 39.1 µM
GI50 [3]: 13.4 µM
GI50 [4]: 32.9 µM
GI50 [5]: 2.38 µM
GI50 [6]: 6.91 µM
GI50 [7]: 5.48 µM
GI50 [8]: 34.7 µM
GI50 [9]: 54.1 µM
GI50 [10]: 8.18 µM
GI50 [11]: 24.4 µM
GI50 [12]: 31.7 µM
GI50 [13]: 50.4 µM
GI50 [14]: 53.3 µM
GI50 [15]: 40.1 µM
GI50 [16]: 13.8 µM
GI50 [17]: 38.6 µM
GI50 [18]: 54.8 µM
GI50 [19]: 54.3 µM
GI50 [20]: 74.2 µM
GI50 [21]: 48.4 µM
Cell lines particularly sensitive (GI50 of 2 micromolar or less) [22]: 1.8%
GI50 [23]: 30.1 µM
GI50 [24]: 33.5 µM
GI50 [25]: 100 µM
GI50 [26]: 2.96 µM
GI50 [27]: 39.7 µM
GI50 [28]: 16.4 µM
GI50 [29]: 32.2 µM
GI50 [30]: 96 µM
GI50 [31]: 100 µM
GI50 [32]: 70.4 µM
GI50 [33]: 31.1 µM
GI50 [34]: 3.54 µM
GI50 [35]: 28.6 µM
GI50 [36]: 31.6 µM
GI50 [37]: 29.8 µM
GI50 [38]: 28.2 µM
GI50 [39]: 100 µM
GI50 [40]: 77.9 µM
GI50 [41]: 58.4 µM
GI50 [42]: 13.6 µM
GI50 [43]: 34.8 µM
GI50 [44]: 86.4 µM
GI50 [45]: 7.08 µM
GI50 [46]: 5.32 µM
GI50 [47]: 11 µM
GI50 [48]: 15.5 µM
GI50 [49]: 3.18 µM
GI50 [50]: 100 µM
GI50 [51]: 52.7 µM
GI50 [52]: 14.3 µM
GI50 [53]: 12 µM
GI50 [54]: 43.8 µM
GI50 [55]: 100 µM
